13 compounds from ChEMBL document CHEMBL5143654, “Synthesis and biological evaluation of marine natural product, Cryptoechinuline D derivatives as novel antiangiogenic agents” (Bioorg Med Chem Lett, 2022) can be followed below.

Activity calls are given as the source filed them. The rule behind the calls is not given here.

What is called IC50 is the point on the concentration scale where inhibition reaches its midpoint.

Test [1] has as its system HUVEC. The test is described as follows: Cytotoxicity against HUVEC cells assessed as cell viability at 50 uM measured after 24 hrs by MTT assay. In kind it is functional. The note with it: Homo sapiens, read-out: Activity. A general note: Formazan colour is commonly taken as a measure of viable cells.
Test [2] relates to HUVEC. The test is described as follows: Anti-angiogenesis activity against HUVEC cells assessed as inhibition of cell migration at 5 to 10 uM measured after 24 hrs by Matrigel invasion assay. The test is classed as functional, cell-based. The note with it: Homo sapiens, dose 5-10 µM.
Test [3] concerns HUVEC. The test is described as follows: Anti-angiogenesis activity against HUVEC cells assessed as inhibition of vertical migration at 5 to 10 uM measured after 24 hrs by Transwell assay. The test is classed as functional, cell-based. The following applies: Homo sapiens, dose 5-10 µM.
Test [4] deals with HUVEC. The test is described as follows: Anti-angiogenesis activity against HUVEC cells assessed as decrease in Ang2 level at 5 to 10 uM measured after 24 hrs by Western blot analysis. The test is classed as functional, cell-based. The note with it: Homo sapiens, dose 5-10 µM. (A western blot detects proteins with antibodies after separation by electrophoresis.)
Test [5] concerns HUVEC. The test is described as follows: Antiproliferative activity against HUVEC assessed as decrease in number Edu-positive cells at 5 to 10 uM after 24 hrs by fluorescence microscopic analysis. The following applies: Homo sapiens, dose 5-10 µM. The test is classed as functional, cell-based.
The subject of test [6] is HUVEC. Briefly: Cytotoxicity against HUVEC cells assessed as inhibition of cell viability measured after 24 hrs by MTT assay. In kind it is functional, cell-based. The following applies: Homo sapiens.
Test [7] deals with HUVEC. Briefly: Anti-angiogenesis activity against HUVEC cells assessed as inhibition of horizontal migration at 5 to 10 uM measured after 8 hrs by wound healing assay. The test is classed as functional, cell-based. The following applies: Homo sapiens, dose 5-10 µM.
The test system of test [8] is HUVEC. Briefly: Anti-angiogenesis activity against HUVEC cells assessed as decrease in Tie2 phosphorylation at Tyr1102/1100 level at 5 to 10 uM measured after 24 hrs by Western blot analysis. The note with it: Homo sapiens, dose 5-10 µM. The test is classed as functional, cell-based.

Regarding `C=CC(C)(C)c1[nH]c2ccccc2c1/C=C1\NC(=O)[C@@]2(C[C@@H](C)C=C[C@H]2/C=C/c2c(OC(C)=O)cc(CC=C(C)C)c(O)c2CO)NC1=O` (racemic), in the test on HUVEC [1], the viability at 50 µM came out at 40.4%.

In the case of `C=CC(C)(C)c1[nH]c2ccccc2c1/C=C1\NC(=O)[C@@]2(C[C@@H](C)C=C[C@H]2/C=C/c2c(OC)cc(CC=C(C)C)c(O)c2C=O)NC1=O` (racemic), the viability at 50 µM in the test with HUVEC [1] amounted to 31.1%.

For the compound `C=CC(C)(C)c1[nH]c2ccccc2c1/C=C1\NC(=O)[C@@]2(C[C@@H](C)C=C[C@H]2/C=C/c2c(OC)cc(CC=C(C)C)c(O)c2CN2CCCC2)NC1=O` (racemic), the viability at 50 µM with HUVEC [1] worked out at 81.6%.

With `C=CC(C)(C)c1[nH]c2ccccc2c1/C=C1\NC(=O)[C@@]2(C[C@@H](C)C=C[C@H]2/C=C/c2c(OC(C)=O)cc(CC=C(C)C)c(OC(C)=O)c2C=O)NC1=O` (racemic), the inhibition entry with HUVEC [2], in the test on HUVEC [3], with HUVEC [4], with HUVEC [5], in the test with HUVEC [7] and in the test on HUVEC [8] was “Active” in each case. In addition, the 50% inhibitory concentration (IC50) with HUVEC [6] worked out at 12.6 µM. Further, in the test on HUVEC [6] (DDE = dose-dependent effect), the inhibition result is “Dde”. In addition, in the test on HUVEC [1], the viability at 50 µM came to 5.33%.

As to `C=CC(C)(C)c1[nH]c2ccccc2c1/C=C1\NC(=O)[C@@]2(C[C@@H](C)C=C[C@H]2/C=C/c2c(OC(C)=O)cc(CC=C(C)C)c(O)c2C=O)NC1=O` (racemic), the viability at 50 µM in the test on HUVEC [1] is 33.7%.

For the compound `C=CC(C)(C)c1[nH]c2ccccc2c1/C=C1\NC(=O)[C@@]2(C[C@@H](C)C=C[C@H]2/C=C/c2c(OC(C)=O)cc(CC=C(C)C)c(OC(C)=O)c2COC(C)=O)NC1=O` (racemic), in the test with HUVEC [1], the viability at 50 µM is 83.2%.

With `C=CC(C)(C)c1[nH]c2ccccc2c1/C=C1\NC(=O)[C@@]2(C[C@@H](C)C=C[C@H]2/C=C/c2c(OC(C)=O)cc(CC=C(C)C)c(O)c2C#N)NC1=O` (racemic), the viability at 50 µM in the test with HUVEC [1] was 71.8%.

As to `C=CC(C)(C)c1[nH]c2ccccc2c1/C=C1\NC(=O)[C@@]2(C[C@@H](C)C=C[C@H]2/C=C/c2c(OC(C)=O)cc(CC=C(C)C)c(O)c2CN(CC)CC)NC1=O` (racemic), the viability at 50 µM in the test on HUVEC [1] amounted to 94.3%.

As to `C=CC(C)(C)c1[nH]c2ccccc2c1/C=C1\NC(=O)[C@@]2(C[C@@H](C)C=C[C@H]2/C=C/c2c(O)cc(CC=C(C)C)c(OC)c2C=O)NC1=O` (racemic), the viability at 50 µM in the test with HUVEC [1] is 78.7%.

For `C=CC(C)(C)c1[nH]c2ccccc2c1/C=C1\NC(=O)[C@@]2(C[C@@H](C)C=C[C@H]2/C=C/c2c(OC(C)=O)cc(CC=C(C)C)c(OC(C)=O)c2/C=N\O)NC1=O` (racemic), in the test with HUVEC [1], the viability at 50 µM was 94.4%.

Regarding `C=CC(C)(C)c1[nH]c2ccccc2c1/C=C1\NC(=O)[C@@]2(C[C@@H](C)C=C[C@H]2/C=C/c2c(OC(C)=O)cc(CC=C(C)C)c(O)c2/C=N\O)NC1=O` (racemic), in the test on HUVEC [1], the viability at 50 µM amounted to 93%.

For the compound `C=CC(C)(C)c1[nH]c2ccccc2c1/C=C1\NC(=O)[C@@]2(C[C@@H](C)C=C[C@H]2/C=C/c2c(OC)cc(CC=C(C)C)c(OC)c2C=O)NC1=O` (racemic), the viability at 50 µM with HUVEC [1] is 87.5%.

Take `C=CC(C)(C)c1[nH]c2ccccc2c1/C=C1\NC(=O)[C@@]2(C[C@@H](C)C=C[C@H]2/C=C/c2c(O)cc(CC=C(C)C)c(O)c2C=O)NC1=O` (racemic): the viability at 50 µM in the test on HUVEC [1] came out at 82.1%.
